According to patent EP2018861A1, “5HT6-Ligands such as sulfonamide derivatives in drug-induced weight-gain” (Laboratorios del Dr. Esteve S.A., priority 2007, dated 2009):

Key:
[1] = molecular target: T1, human 5-HT6 receptors (Homo sapiens, UniProt P50406); assay: Radiolabelled ligand-receptor binding ([3H]-LSD) on cloned/transfected human 5-HT6 receptors; details: equated from the pKi value
T1 construct: purchased Perkin-Elmer; host or cells: HEK-293 (stably transfected), membranes
Description: To investigate the binding properties of 5-HT6 receptor ligands to human 5-HT6 receptors, transfected HEK-293 membranes from Perkin-Elmer and [3H]-LSD (NEN), as the radioligand, were used. The assay was carried out in 96-well plates with a total reaction volume of 200 µl, containing 100 µl of membrane suspension (35 µg protein/well), 10 µl of [3H]-LSD (2.7 nM) in either the absence or presence of 90 µl of either buffer or methiothepin (5 µM) for total and non-specific binding, respectively. Binding buffer contained 50 mMTris-HCl, 10 mM MgCl2 and 0.5 mM EDTA at pH 7.4. Plates were incubated at 37 °C for 60 minutes. After the incubation period, 170 µl of incubate were transferred to MultiScreen HTS, FC plates (Millipore), filtered and plates were washed 3 times with ice-cold 50mM Tris-HCl (pH 7.4). Filters were dried and counted at approximately 40% efficiency in a MicroBeta scintillation counter (Perkin-Elmer) using 25 µl per well of EcoScint liquid scintillation cocktail.

[2] = Feeding study: olanzapine-induced weight-gain and hyperphagia in rats on a high-fat diet; format: in vivo, female Sprague-Dawley rats; details: olanzapine 3 mg/kg po; for Mean body weight (g) Day 15: after 14 days of treatment, high-fat diet; for Mean body weight (g) Day 15 / Mean body weight (g) Day 0: n=10; for Mean body weight (g) Day 0: before treatment (baseline)
Description: The experiment was performed on 40 female Sprague-Dawley rats (originally in the weight range 250-300 g). The animal room was maintained at a temperature of 21±4°C and 55±20% humidity and on a reversed phase light-dark cycle (lights off for 8 h from 09.30-17.30 h) during which time the room was illuminated by red light. Animals had free access to powdered high fat diet (VRF1 plus 20% lard). The diet was contained in a glass feeding jar with an aluminium lid with a 3-4 cm hole cut in it to allow access to the food. Animals were housed singly in polypropylene cages with wire grid floors to enable the food intake of each rat to be recorded. Polypropylene trays containing cage pads were placed beneath each cage to detect any food spillage. Animals were accustomed to these new conditions (individual housing and the wire-grid floor cages) for at least 14 days before the start of the baseline readings.
Approximately a week before the start of the study, animals were weighed (to the nearest 0.1 g using an electronic top-pan balance) and allocated into 4 weight-matched treatment groups, each containing 10 animals. Following a 7 day baseline run-in period, during which the animals were dosed orally with vehicle (0.5% hydroxypropylmethylcellulose), to acclimatise them to dosing/handling, the rats were given treatments, described in the Table below, for 14 days.
Food intake and body weight were measured once daily. Variations in body weight were accounted for by expressing the food intake results in terms of g/kg rat weight.
(§1) Statistical comparisons between the body weights of the different treatment groups were made by analysis of covariance followed by multiple t tests (two-tailed) to compare each treatment group with the vehicle-treated controls. For the body weight data (body weights recorded each day), the weights of the animals on Day 1 (ie immediately before the first drug treatment) were used as the covariate. Thus, means were adjusted for differences in body weight between the groups on Day 1 and standard errors of the mean (SEM) were calculated from the residuals of the statistical model. All mean body weight values on Day 1 are identical (and SEM are therefore zero) because the analysis of covariance adjusts them all to equal the 'grand mean' of the values of this day.
Statistical comparisons between the food intakes of the different treatment groups were made by analysis of covariance followed by multiple t tests (two-tailed) to compare each treatment group with the vehicle-treated controls. Food intake of the animals at baseline (ie average of Day -6 to Day 0) was used as the covariate. Standard errors of the mean (SEM) were calculated from the residuals of the statistical model.
Analysis of body weights and average daily food intakes were also performed to analyse cumulative food intake and body weight changes. Analysis of covariance followed by post-hoc Student's t-test (two-tailed) was used to compare the average daily food intakes over Week 1 and Week 2 for COMPOUND 1 treatment group versus (a) the vehicle-treated and (b) the olanzapine-treated groups of rats. The body weights of all groups of rats before and after treatment were statistically compared pair-wise using Student's paired t-test (two-tailed).

[3] = Feeding study in dietary-induced obese (DIO) rats, comparison with sibutramine; format: in vivo, female Wistar rats; details: for body weight compared with the vehicle-treated controls / daily food intake: 28 days; for body weight compared with the vehicle-treated controls / daily food intake / days on which the decreases of food intake were statistically significant versus the vehicle-treated control group / weighed less than the vehicle-treated controls: COMPOUND 1 30 mg/kg po bid; for body weight compared with the vehicle-treated controls: sibutramine 5 mg/kg/day po once daily (Figure 4); for daily food intake: sibutramine 5 mg/kg/day po once daily (Figure 5); for days on which the decreases of food intake were statistically significant versus the vehicle-treated control group / weighed less than the vehicle-treated controls: sibutramine 5 mg/kg/day po; for weighed less than the vehicle-treated controls: end of treatment period (Day 28); for weight reductions: over the 28 daily treatment period, DIO rat (Figure 4)
Description: The experiment was performed on female Wistar rats (originally in the weight range 250-300 g). The rats were housed in pairs in polypropylene cages with solid floors and sawdust bedding at a temperature of 21±4°C and 55±20% humidity. Animals were maintained on a reverse phase light-dark cycle (lights off for 8 h from 09.30-17.30 h) during which time the room was illuminated by red light. Animals had free access to powdered high fat diet (VRF1 plus 20% lard), ground chocolate, ground peanuts and tap water at all times. The three different diets were contained in separate glass feeding jars with aluminum lids with a 3-4 cm hole cut in them to allow access to the food. Animals were housed in pairs for twelve weeks for the induction of obesity. Animals were then housed singly in polypropylene cages with wire grid floors to enable the food intake of each rat to be recorded. Polypropylene trays with cage pads were placed beneath each cage to detect any food spillage. Animals were accustomed to these new conditions (individual housing and the wire-grid floor cages) for at least 14 days before the start of the baseline readings.
At the start of the first DIO study, animals were weighed (to the nearest 0.1 g using an electronic top-pan balance) and allocated into 3 weight-matched treatment groups, each containing 10 animals. Following a 7 day baseline run-in period, during which time all animals were dosed orally once a day with vehicle (0.5% hydroxypropylmethylcellulose), rats were dosed for 28 days with vehicle at 0 and 6 h or test compound either COMPOUND 1 (30 mg/kg, p.o., twice a day at 0 and 6 h) or sibutramine (5 mg/kg, p.o. at 0 h / vehicle p.o. at 6 h). The first compound dose was given at the onset of the 8 h dark period (0 h). This strategy was taken to maximise the impact of any inhibitory effect of the compounds on food intake as rats are predominantly nocturnal feeders. Six hours later, animals were dosed again with either vehicle or compounds.
Food intake and body weight were measured once daily. Variations in body weight and energy levels of the different types of food were accounted for by expressing the food intake results in terms of kJ/kg rat weight.
as §1, with “body weights and daily food intakes of the” for “body weights of the”, “treatment groups have been made by” for “treatment groups were made by”, “followed by Dunnett's test to compare” for “followed by multiple t tests (two-tailed) to compare”, “(body weights each day),” for “(body weights recorded each day),”

[4] = molecular target: rat variant of the 5-HT6 receptor (Rattus norvegicus, UniProt P31388); details: Romero et al, 2006; cited from earlier work
[5] = molecular target: human variant of the 5-HT6 receptor (Homo sapiens, UniProt P50406); details: Romero et al, 2006; cited from earlier work
[6] = 5-HT6 antagonists; Svartengren et al, 2004; Shacham et al, 2006; cited from earlier work
[7] = molecular target: 5-HT6 receptors (Rattus norvegicus, UniProt P31388); details: Roth et al, 1994; cited from earlier work
Sequence of 5-HT6 receptors (P31388 whole entry): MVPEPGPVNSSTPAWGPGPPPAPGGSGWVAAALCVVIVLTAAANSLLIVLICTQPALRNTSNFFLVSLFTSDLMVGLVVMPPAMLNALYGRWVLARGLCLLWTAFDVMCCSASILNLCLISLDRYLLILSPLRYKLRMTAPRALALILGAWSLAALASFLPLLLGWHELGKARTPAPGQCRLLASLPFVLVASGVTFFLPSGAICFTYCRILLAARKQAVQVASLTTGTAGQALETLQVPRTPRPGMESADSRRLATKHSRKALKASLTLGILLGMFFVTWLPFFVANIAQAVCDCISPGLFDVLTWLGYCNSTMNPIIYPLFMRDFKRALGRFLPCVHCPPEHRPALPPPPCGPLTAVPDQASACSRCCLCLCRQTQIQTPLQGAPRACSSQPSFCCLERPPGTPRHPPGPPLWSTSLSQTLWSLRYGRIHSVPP

[8] = repeated sibutramine administration, 14 days (Figure 7); cited from earlier work

T1 sequence (P50406 whole entry): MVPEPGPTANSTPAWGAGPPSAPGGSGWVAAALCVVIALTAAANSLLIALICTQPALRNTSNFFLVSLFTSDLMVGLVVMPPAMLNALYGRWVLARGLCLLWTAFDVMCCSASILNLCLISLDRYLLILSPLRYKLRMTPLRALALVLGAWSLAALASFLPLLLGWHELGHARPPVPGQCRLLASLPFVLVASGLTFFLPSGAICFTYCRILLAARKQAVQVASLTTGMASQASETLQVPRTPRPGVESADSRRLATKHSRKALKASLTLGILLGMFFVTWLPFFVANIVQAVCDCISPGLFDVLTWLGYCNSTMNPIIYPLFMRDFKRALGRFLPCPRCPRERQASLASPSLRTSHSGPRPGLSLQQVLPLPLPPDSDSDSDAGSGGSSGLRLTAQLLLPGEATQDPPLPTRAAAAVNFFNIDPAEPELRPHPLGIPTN

## CN(C)CCc1c[nH]c2ccc(NS(=O)(=O)c3ccc4c(Cl)cccc4c3)cc12 [COMPOUND 1, 5-Chloro-naphthalene-2-sulfonic acid [3-(2-dimethylamino-ethyl)-1H-indol-5-yl]-amide]
[1]
  Ki: 0.74 nM
[2]; 14 days, COMPOUND 1 30 mg/kg po bid, high-fat diet (Figure 1)
  body weight compared to the vehicle + vehicle-treated control: gradual decrease in body weight
[2]; 14 days, COMPOUND 1 30 mg/kg po bid, high-fat diet (Figure 2)
  daily food intake compared to the vehicle-treated controls: markedly reduced their food intakes
[2]; Week 1, COMPOUND 1 30 mg/kg po bid (Figure 3)
  cumulative intake of food over the first week compared to the vehicle controls: statistically lower (p < 0.001)
[2]; COMPOUND 1 30 mg/kg po bid
  Mean body weight (g) Day 15: 289.5 ± 6.1 g
  Mean body weight (g) Day 0: 292.8 ± 7.2 g
[3]
  body weight compared with the vehicle-treated controls: marked and sustained decrease in the body weights
  daily food intake: reduction in daily food intake
  days on which the decreases of food intake were statistically significant versus the vehicle-treated control group: Day 2 to Day 8
  weighed less than the vehicle-treated controls: 15.6%
  weight reductions: greater than 10%
[4]
  functionality at the 5-HT6 receptor: agonist
[5]
  functionality at the 5-HT6 receptor: agonist

## Cc1cc2c(s1)Nc1ccccc1N=C2N1CCN(C)CC1 [Olanzapine]
[2]; COMPOUND 1 30 mg/kg po bid
  Mean body weight (g) Day 15: 333.0 ± 8.2 g
  Mean body weight (g) Day 0: 296.9 ± 7.2 g

## COc1cc(Cl)cc(C(C)Nc2cc(N3CCNCC3)ccc2S(C)(=O)=O)c1OC.Cl (stereo not shown) [PRX-07034]
[6]
  food intake and body weight in obese rodents: reduce food intake and produce sustained weight-loss

## OC1(c2ccc(Cl)c(C(F)(F)F)c2)CCN(CCCC(c2ccc(F)cc2)c2ccc(F)cc2)CC1 [penfluridol]
[7]
  affinity for this 5-HT receptor subtype (5-HT6): no relevant affinity

## CCN1CCC[C@H]1CNC(=O)c1c(O)c(Cl)cc(Cl)c1OC [raclopride]
[7]
  affinity for this 5-HT receptor subtype (5-HT6): no relevant affinity

## C[C@@H]1CN(CCCn2c3ccccc3c3ccccc32)C[C@H](C)N1 [rimcazole]
[7]
  affinity for this 5-HT receptor subtype (5-HT6): no relevant affinity

## CC(C)CC(N(C)C)C1(c2ccc(Cl)cc2)CCC1 (stereo not shown) [sibutramine]
[3]
  body weight compared with the vehicle-treated controls: significant body weight-loss
  daily food intake: significant reduction of food intake
  days on which the decreases of food intake were statistically significant versus the vehicle-treated control group: Day 1 to Day 5
  weighed less than the vehicle-treated controls: 10.8%
  weight reductions: greater than 10%
[8]
  effect on the weight-gain evoked by olanzapine: only partially to attenuate the weight-gain
